According to publication PMC6356680, “Clerodane Diterpenes from the Marine Sponge Raspailia bouryesnaultae Collected in South Brazil” (Marine Drugs, 2019):
Read-outs that look alike come from different tables or passages of the source.

Experiments:
HSV-1 (29R strain) = test: Viral plaque number reduction assay, HSV-1 29R strain; assay type: cell-based, Herpes Simplex Virus type 1; details: for inhibition at 100 µg/mL: tested concentration 100 µg/mL
Description: (§1) Firstly, the cytotoxicity of compounds 1–6 was determined by SRB assay as described above. HSV-1 (KOS and 29R strains, which are sensitive and resistant to acyclovir, respectively, Faculty of Pharmacy, University of Rennes I, Rennes, France) were propagated in the permissive Vero cells. Viral stocks were titrated as based on plaque-forming units (PFU), counted by plaque assay as previously described, and stored at −80 °C until used. To perform the anti-HSV-1 screening, the viral plaque number reduction assay was used as described previously by Boff et al.. Briefly, confluent Vero cell monolayers (2.5 × 10^5 cells per well) were infected with approximately 100 PFU of each virus strain for 1 h at 37 °C. Treatments were performed by adding non-cytotoxic concentrations of the compounds after viral infection (post-infection treatment). Cells were then washed with phosphate-buffered saline (PBS) and overlaid with MEM containing 1.5% carboxymethylcellulose (CMC; Sigma-Aldrich) in the presence or absence of different concentrations of the compounds and incubated for 48 h. Cells were fixed and stained with naphthol blue-black (Sigma-Aldrich), and viral plaques were counted by using a stereomicroscope. The results were presented as percentages of viral inhibition or by IC50 values, which are defined as the concentration of each sample that inhibited viral plaque formation by 50% (IC50) when compared to untreated controls. The ratio between CC50 and IC50 values was calculated to obtain the selectivity index (SI) of each sample. Acyclovir (ACV, Sigma-Aldrich) was used as a positive control for HSV-1 (KOS strain) and as a negative control for HSV-1 (29-R strain) replication.

in vitro [1] = assay type: cell-based; details: African green monkey
Description: (§2) Non-small cells of human lung cancer cells (A549; ATCC: CCL 195) and African Green monkey kidney fibroblasts (Vero; ATCC: CCL81) were grown in Eagle’s minimum essential medium (MEM; Cultilab, Campinas, Brazil) supplemented with 1% glutamine (Gibco, Carlsbad, CA, USA) and 10% fetal bovine serum (FBS; Gibco, Carlsbad, CA, USA), and maintained at 37 °C and 5% CO2 in a humidified atmosphere. The antiproliferative screening was performed by sulforhodamine B assay (SRB). In summary, A549 cells were seeded into 96-well plates (2.5 × 10^4 cells per well) and exposed to different concentrations of compounds 1–6 for 48 h. Paclitaxel (PAC, Sigma-Aldrich, St. Louis, MO, USA) was used as a positive control. After incubation, 10% trichloroacetic acid (TCA) was added to each well to fix the cells, and then the cells were washed and stained with SRB. […] The ratio between CC50 and IC50 values was calculated to obtain the selectivity index (SI) of each sample.
as §1

HSV-1 (KOS strain) = test: Viral plaque number reduction assay, HSV-1 KOS strain; assay type: cell-based, Herpes Simplex Virus type 1; details: for IC50: read-out: IC50 (KOS Strain)
Description: as §1

in vitro [2] = assay type: cell-based; details: African green monkey (Vero) and human (A549), Vero cells (CC50) and A549 cells (IC50); CC50 Vero / IC50 A549; read-out: SI (selective index = CC50/IC50)
Description: as §2

[3] = test system: non-small cells of human lung cancer (A549); test: in vitro; assay type: cell-based; details: 48 h of treatment, sulforhodamine B assay, mean of three independent experiments, read-out: IC50 A549 Cell Line (Confidence Interval 95%)
Description: as §2

Vero cell line = test: in vitro; assay type: cell-based; details: African green monkey, 48 h
Description: as §2, §1

[4] = Human alphaherpesvirus 1, 48 h, acyclovir-resistant strain, read-out: % HSV-1 Inhibition ± SD, 29R Strain
[5] = Human alphaherpesvirus 1, 48 h, tested concentration 100 µg/mL, 48 h, post-infection treatment, read-out: % HSV-1 Inhibition ± SD, KOS Strain

SMILES: C[C@H]1C[C@@H](O)[C@]23C(=CCC[C@@H]2[C@@]1(C)CCc1ccoc1)CO[C@H]3O [Compound 1, raspailol]
- inhibition at 100 µg/mL (HSV-1 (29R strain); [4]): 0%
- CC50 at 48 h (in vitro [1]): 148 µM
- inhibition at 100 µg/mL (HSV-1 (KOS strain); [5]): 34.6 ± 7.36%
- selectivity ratio at 48 h (in vitro [2]): 6.14
- IC50 [3]: 24.1 µM
- IC50 ([3]; Homo sapiens, A549, 48 h): < 25 µM

SMILES: C=C1C(C)=CCC[C@@H]1[C@@](C)(CCc1ccoc1)[C@@H](C)CC(=O)OC [Compound 2, raspadiene]
- inhibition at 100 µg/mL (HSV-1 (29R strain); [4]): 74%
- IC50 (HSV-1 (29R strain); Human alphaherpesvirus 1, 48 h, concentration ± SD that inhibited 50% of viral replication, unit inferred): 74.9 ± 7.3 µM
- CC50 at 48 h (in vitro [1]): > 250 µM
- CC50 (Vero cell line): > 250 µM
- inhibition at 100 µg/mL (HSV-1 (KOS strain); Human alphaherpesvirus 1, 48 h, read-out: % HSV-1 Inhibition ± SD, KOS Strain, tested concentration 100 µg/mL, 48 h, post-infection treatment): 83%
- IC50 (HSV-1 (KOS strain); Human alphaherpesvirus 1, 48 h): 81.4 ± 9.82 µM
- % HSV-1 Inhibition ± SD, KOS Strain (HSV-1 (KOS strain); tested concentration 100 µg/mL, 48 h, post-infection treatment): 83.41 ± 16.12%
- selectivity ratio at 48 h (in vitro [2]): > 2.49
- IC50 ([3]; Homo sapiens, A549, 48 h): 100 µM

SMILES: CC1=CCC[C@H]2C1(C(=O)O)[C@H](O)C[C@H](C)[C@]2(C)CCc1ccoc1 (stereo partly drawn) [Compound 3, kerlinic acid]
- inhibition at 100 µg/mL (HSV-1 (29R strain); [4]): 32 ± 6.12%
- CC50 at 48 h (in vitro [1]): 182 µM
- inhibition at 100 µg/mL (HSV-1 (KOS strain); [5]): 24.4 ± 4.04%
- selectivity ratio at 48 h (in vitro [2]): 2.74
- IC50 ([3]; Homo sapiens, A549, 48 h): 66.2 µM

SMILES: COC(=O)[C@@]12C(C)=CCC[C@@H]1[C@@](C)(CCc1ccoc1)[C@@H](C)C[C@H]2O [Compound 4, kerlinic acid methyl ester]
- inhibition at 50 µg/mL (HSV-1 (29R strain); Human alphaherpesvirus 1, 48 h, tested concentration 50 µg/mL, acyclovir-resistant strain, read-out: % HSV-1 Inhibition ± SD, 29R Strain): 14.4 ± 5.46%
- CC50 at 48 h (in vitro [1]): 98.4 µM
- IC50 (HSV-1 (KOS strain); Human alphaherpesvirus 1, 48 h): 52.4 ± 4.78 µM
- inhibition at 50 µg/mL (HSV-1 (KOS strain); Human alphaherpesvirus 1, 48 h, tested concentration 50 µg/mL, 48 h, post-infection treatment, read-out: % HSV-1 Inhibition ± SD, KOS Strain): 50%
- % HSV-1 Inhibition ± SD, KOS Strain (HSV-1 (KOS strain); tested concentration 50 µg/mL, 48 h, post-infection treatment): 50.23 ± 8.24%
- selectivity ratio at 48 h (in vitro [2]): 4.77
- IC50 [3]: 20.6 µM
- IC50 ([3]; Homo sapiens, A549, 48 h): < 25 µM

SMILES: CC1=CCC[C@@H]2[C@@](C)(CCc3ccoc3)[C@@H](C)CC[C@]12C [Compound 5, annonene]
- inhibition at 100 µg/mL (HSV-1 (29R strain); [4]): 30.9 ± 9.07%
- CC50 at 48 h (in vitro [1]): > 250 µM
- inhibition at 100 µg/mL (HSV-1 (KOS strain); [5]): 15.2 ± 4.65%
- selectivity ratio at 48 h (in vitro [2]): > 1.74
- IC50 ([3]; Homo sapiens, A549, 48 h): 144 µM

SMILES: CC1=CCC[C@@H]2[C@@](C)(CCc3ccoc3)[C@@H](C)C[C@@H](O)[C@]12C [Compound 6, 6-hydroxyannonene]
- inhibition at 25 µg/mL (HSV-1 (29R strain); Human alphaherpesvirus 1, 48 h, tested concentration 25 µg/mL, acyclovir-resistant strain, read-out: % HSV-1 Inhibition ± SD, 29R Strain): 0%
- CC50 at 48 h (in vitro [1]): 40.8 µM
- inhibition at 25 µg/mL (HSV-1 (KOS strain); Human alphaherpesvirus 1, 48 h, tested concentration 25 µg/mL, 48 h, post-infection treatment, read-out: % HSV-1 Inhibition ± SD, KOS Strain): 0%
- selectivity ratio at 48 h (in vitro [2]): 1.66
- IC50 [3]: 24.5 µM
- IC50 ([3]; Homo sapiens, A549, 48 h): < 25 µM
